“Also recorded” adds a separate entry of the source.
Legend:
Assay in all cases: In vitro HPPD activity assay
Type in all cases: biochemical, Scenedesmus obliquus
Settings in all cases: normalized on Arabidopsis wild-type HPPD (SEQ ID NO:42)
[1] = system: SoHPPD A318P, A319P (short)
Procedure: (§1) HPPD produces homogentisic acid and CO2 from 4-hydroxyphenylpyruvate (4-HPP) and O2. The activity assay for HPPD is based on the analysis of homogentisic acid by reversed phase HPLC.
(§2) The assay mixture can contain 150 mM potassium phosphate buffer pH 7.0, 50 mM L-ascorbic acid, 100 μM Catalase (Sigma-Aldrich), 1 μM FeSO4 and 0.2 units of purified mutated HPPD enzyme in a total volume of 505 μl. 1 unit is defined as the amount of enzyme that is required to produce 1 nmol of HGA per minute at 20° C.
(§3) After a preincubation of 30 min the reaction is started by adding 4-HPP to a final concentration of 0.05 mM. The reaction is allowed to proceed for 45 min at room temperature. The reaction is stopped by the addition of 50 μl of 4.5 M phosphoric acid. The sample is filtered using a […] pore size PVDF filtration device.
(§4) 5 μl of the cleared sample is analyzed on an UPLC HSS T3 column (particle size 1.8 μm, dimensions 2.1×50 mm; Waters) by isocratic elution using 90% 20 mM NaH2PO4 pH 2.2, 10% methanol (v/v).
(§5) HGA is detected electrochemically at 750 mV (mode: DC; polarity: positive) and quantified by integrating peak areas (Empower software; Waters).
(§6) Inhibitors are dissolved in DMSO (dimethylsulfoxide) to a concentration of 0.5 mM. From this stock solution serial five-fold dilutions are prepared in DMSO, which are used in the assay. The respective inhibitor solution accounts for 1% of the assay volume. Thus, final inhibitor concentrations range from 5 μM to 320 pM, respectively. Activities are normalized by setting the uninhibited enzyme activity to 100%. IC50 values are calculated using non-linear regression.
(§7) Using methods which are described in the above examples or well known in the art, purified, recombinant mutated HPPD enzymes are characterized with respect to their kinetic properties and sensitivity towards HPPD inhibiting herbicides. Apparent michaelis constants (Km) and maximal reaction velocities (Vmax) are calculated by non-linear regression with the software GraphPad Prism 5 (GraphPad Software, La Jolla, USA) using a substrate inhibition model. Apparent kcat values are calculated from Vmax assuming 100% purity of the enzyme preparation. Weighted means (by standard error) of Km and IC50 values are calculated from at least three independent experiments. The Cheng-Prusoff equation for competitive inhibition (Cheng, Y. C.; Prusoff, W. H. Biochem Pharmacol 1973, 22, 3099-3108) is used to calculate dissociation constants (Ki).
(§8) Field performance of the HPPD enzyme, which is used as a herbicide tolerance trait may depend not only on its lack of sensitivity towards HPPD inhibiting herbicides but also on its activity. To assess the potential performance of a herbicide tolerance trait a tolerance index (TI) is calculated using the following formula: […]
(§9) Easy comparison and ranking of each trait is enabled by normalizing tolerance indexes on Arabidopsis wild-type HPPD.

[2] = system: SoHPPD A318R, L350M (short)
Procedure: as §1, §2, §3, §4, §5, §6, §7, §8, §9

SoHPPD A318R, L350M = system: SoHPPD A318R, L350M
Procedure: as §1, §2, §3, §4, §5, §6, §7, §8, §9

SoHPPD E345Q (short) = system: SoHPPD E345Q (short)
Procedure: as §1, §2, §3, §4, §5, §6, §7, §8, §9

[3] = system: SoHPPD E345Q, K326D (short)
Procedure: as §1, §2, §3, §4, §5, §6, §7, §8, §9

[4] = system: SoHPPD E345Q, K326Q (short)
Procedure: as §1, §2, §3, §4, §5, §6, §7, §8, §9

SoHPPD E379Q (short) = system: SoHPPD E379Q (short)
Procedure: as §1, §2, §3, §4, §5, §6, §7, §8, §9

SoHPPD F363I (short) = system: SoHPPD F363I (short)
Procedure: as §1, §2, §3, §4, §5, §6, §7, §8, §9

SoHPPD F363I = system: SoHPPD F363I
Procedure: as §1, §2, §3, §4, §5, §6, §7, §8, §9

[5] = system: SoHPPD F39W, L367V, I375L (short)
Procedure: as §1, §2, §3, §4, §5, §6, §7, §8, §9

SoHPPD H306K (short) = system: SoHPPD H306K (short)
Procedure: as §1, §2, §3, §4, §5, §6, §7, §8, §9

SoHPPD I419V (short) = system: SoHPPD I419V (short)
Procedure: as §1, §2, §3, §4, §5, §6, §7, §8, §9

SoHPPD I455V = system: SoHPPD I455V
Procedure: as §1, §2, §3, §4, §5, §6, §7, §8, §9

[6] = system: SoHPPD K326E, E345Q (short)
Procedure: as §1, §2, §3, §4, §5, §6, §7, §8, §9

[7] = system: SoHPPD L367V, I375L (short)
Procedure: as §1, §2, §3, §4, §5, §6, §7, §8, §9

SoHPPD L367V, I375L = system: SoHPPD L367V, I375L
Procedure: as §1, §2, §3, §4, §5, §6, §7, §8, §9

SoHPPD Q317H (short) = system: SoHPPD Q317H (short)
Procedure: as §1, §2, §3, §4, §5, §6, §7, §8, §9

[8] = system: SoHPPD Q317H, A318G, E345Q (short)
Procedure: as §1, §2, §3, §4, §5, §6, §7, §8, §9

[9] = system: SoHPPD Q317H, A318G, E345Q
Procedure: as §1, §2, §3, §4, §5, §6, §7, §8, §9

SoHPPD Q317H = system: SoHPPD Q317H
Procedure: as §1, §2, §3, §4, §5, §6, §7, §8, §9

SoHPPD Q317M (short) = system: SoHPPD Q317M (short)
Procedure: as §1, §2, §3, §4, §5, §6, §7, §8, §9

[10] = system: SoHPPD R327G, E421D (short)
Procedure: as §1, §2, §3, §4, §5, §6, §7, §8, §9

SoHPPD V251A (short) = system: SoHPPD V251A (short)
Procedure: as §1, §2, §3, §4, §5, §6, §7, §8, §9

[11] = system: SoHPPD V251A, H306R, Q317L, A318P, G321P, K331E, L350M (short)
Procedure: as §1, §2, §3, §4, §5, §6, §7, §8, §9

SMILES | TI (normalized tolerance index) [1] | TI (normalized tolerance index) [2] | TI (normalized tolerance index) (SoHPPD A318R, L350M) | TI (normalized tolerance index) (SoHPPD E345Q (short)) | TI (normalized tolerance index) [3] | TI (normalized tolerance index) [4] | TI (normalized tolerance index) (SoHPPD E379Q (short)) | TI (normalized tolerance index) (SoHPPD F363I (short)) | TI (normalized tolerance index) (SoHPPD F363I) | TI (normalized tolerance index) [5] | TI (normalized tolerance index) (SoHPPD H306K (short)) | TI (normalized tolerance index) (SoHPPD I419V (short)) | TI (normalized tolerance index) (SoHPPD I455V) | TI (normalized tolerance index) [6] | TI (normalized tolerance index) [7] | TI (normalized tolerance index) (SoHPPD L367V, I375L) | TI (normalized tolerance index) (SoHPPD Q317H (short)) | TI (normalized tolerance index) [8] | TI (normalized tolerance index) [9] | TI (normalized tolerance index) (SoHPPD Q317H) | other results
CS(=O)(=O)c1ccc(C(=O)C2C(=O)CCCC2=O)c([N+](=O)[O-])c1 [Inhibitor 2, 2-(4-methylsulfonyl-2-nitro-benzoyl)cyclohexane-1,3-dione] | 0.2 | 0.8 | 0.1 | 0.5 | 0.1 | 0.1 | 0.0 | 0.8 | 0.1 | 0.0 | 0.1 | 0.1 | 0.1 | 0.0 | 0.0 | 0.0 | 0.2 | 0.4 | 0.1 | 0.1 | TI (normalized tolerance index) (SoHPPD Q317M (short)): 0.6; TI (normalized tolerance index) [10]: 0.2; TI (normalized tolerance index) (SoHPPD V251A (short)): 0.0; TI (normalized tolerance index) [11]: 0.7
CCS(=O)(=O)c1cc(C(F)(F)F)ccc1C1=C(O)c2ncccc2C(C)(C)S1(=O)=O [Inhibitor 4, 7-[2-ethylsulfonyl-4-(trifluoromethyl)phenyl]-5,5-dimethyl-6,6-dioxo-thiopyrano[4,3-b]pyridin-8-ol] | 0.6 | 1.0 | 0.3 | 0.3 | 0.0 | 0.0 | 0.1 | 0.3 | 0.1 | 0.2 | 0.3 | 0.3 | 0.5 | 0.0 | 0.3 | 0.2 | 0.6 | 1.4 | 0.4 | 0.3 | TI (normalized tolerance index) (SoHPPD Q317M (short)): 1.3; TI (normalized tolerance index) [10]: 0.0; TI (normalized tolerance index) (SoHPPD V251A (short)): 0.0; TI (normalized tolerance index) [11]: 0.0
CC(=O)N(C)c1c(Cl)ccc(C2=C(O)c3ncccc3C(C)(C)S2(=O)=O)c1Cl [Inhibitor 5, N-[2,6-dichloro-3-(8-hydroxy-5,5-dimethyl-6,6-dioxo-thiopyrano[4,3-b]pyridin-7-yl)phenyl]-N-methyl-acetamide] | 0.5 | 0.7 | 0.2 | 0.2 | 0.2 | 0.2 | 0.0 | 0.6 | 0.4 | 0.1 | 0.2 | 0.1 | 0.7 | 0.0 | 0.3 | 0.1 | 0.4 | 0.9 | 0.2 | 0.2 | TI (normalized tolerance index) (SoHPPD Q317M (short)): 0.9; TI (normalized tolerance index) [10]: 0.3; TI (normalized tolerance index) (SoHPPD V251A (short)): 0.0; TI (normalized tolerance index) [11]: 0.3
CCSc1ccc(Cl)c(C(=O)Nc2nnnn2C)c1Cl [Inhibitor 8, 2,6-dichloro-3-ethylsulfanyl-N-(1-methyltetrazol-5-yl)benzamide] | 0.8 | 1.2 | 0.2 | 0.5 | 0.3 | 0.3 | 0.4 | not inhibited; also recorded: no inhi- | no inhibition; also recorded: no inhi- | 0.5 | 0.3 | 0.3 | 0.3 | 0.1 | 0.7 | 0.0 | 0.5 | 1.0 | 0.1 | 0.1 | TI (normalized tolerance index) (SoHPPD Q317M (short)): 0.8; TI (normalized tolerance index) [10]: 0.5; TI (normalized tolerance index) (SoHPPD V251A (short)): 0.1; TI (normalized tolerance index) [11]: 0.2

Reference: patent US11248234B2, “Herbicide-resistant hydroxyphenylpyruvate dioxygenases” (BASF SE, priority 2015, dated 2022)
